The text below walks through data of patent publication US20020049157A1, “Use of proteasome inhibitors for treating cancer, inflammation, autoimmune disease, graft rejection and septic shock” (priority 1998, published 2002).

One experiment relates to Jurkat cells. As to the kind of experiment: Cell cycle progress in synchronized Jurkat cells (propidium iodide flow cytometry). The experiment is classed as cell-based. How it is done:
For the last 3 h of the treatment, LAC (6 μM) was added to the cultures destined to be treated by LAC later. The cells were then released by washing out nocodazole, and recultured in complete medium with or without 6 μM LAC. The cells were sampled at 0 h, 4 h and 8 h after the G2/M release, stained with propidium iodide, and analyzed with flow cytometry.
B. LAC slows the cell cycle progress from the G1/S boundary to the G2/M phase in synchronized Jurkat cells Jurkat cells were synchronized at the G1/S by isoleucine starvation followed by a hydroxyurea treatment. The synchronized cells were released by washing out hydroxyurea and were cultured in complete medium in the absence or presence of LAC (6 μM). The cells were sampled at 0 h, 3 h, 6 h, 9 h, 12 h, 15 h and 24 h after the release, and were stained with propidium iodide and analyzed with flow cytometry.
We used synchronized Jurkat cells to identify the LAC-sensitive phase(s) of the cell cycle. Jurkat cells were first synchronized at the G2/M boundary by nocodazole (FIG. 6A). […]
We next studied requirement of the proteasome activity for the progression from the G1/S boundary to the G2/M phase. […] It is to be noted that although the percentage of cells in the S/G2/M phase in the LAC-treated sample was similar to that of controls (the inset table of FIG. 6B), the peak of fluorescence was lagged behind (histogram array). […]
Background: In flow cytometry, cells or beads pass a laser one at a time.

Experiment [1] deals with chymotrypsin-like activity in the lysate of PBMC. The experiment in a line: LAC-inhibitable chymotrypsin-like activity in PBMC lysates. Type of experiment: biochemical, human. As to conditions: 10 μM LAC.
Description: Human PBMC were cultured in the absence or presence of 2 μg/ml PHA or 10 nM RAPA for 16 h-70 h as indicated. The cells were then harvested, and the chymotrypsin-like activity of whole cells lysates was assayed in the absence or presence of 20 μM proteasome inhibitor LAC. The data are presented as arbitrary units of fluorescence intensity per 20 μg lysate protein. The experiments were repeated three times and a representative one is shown. Samples are in duplicate and the mean±SD is shown. (A) Total chymotrypsin-like activity in the lysate of PBMC. (B) Lactacystin-inhibitable chymotrypsin-like activity in the lysate of 70 h PBMC. […] LAC was always added to the lysates during the proteinase assay 15 min before the addition of the substrate. The solid bars represent the activity in the presence of LAC. The net proteasome activities are calculated as the total activity minus the remaining activity after the LAC addition.
PBMC were cultured with or without PHA (2 μg/ml) and RAPA (10 nM). After 16 h-70 h, the cells were harvested and sonicated in 300 μl PBS on ice for 40 sec. Twenty micrograms of protein per sample from the cleared lysates were supplemented to 100 μl with 0.1 M Tris buffer (pH 8.2). A proteasome-specific inhibitor lactacystin (Omura et al., 1991, supra; Fentenay et al., 1995, supra) was added at a final concentration of 10 nM in some samples as indicated. The samples were incubated on ice for 15 min, and fluorogenic chymotrypsin substrate sLLVY-MCA was then added at a final concentration of 10 nM. The 20S proteasome, which was prepared as previously described (Friguet et al, 1994, J. Biol. Chem. 269:21639), was used as a positive control in place of cell lysates. The samples were incubated at 37° C. for 15 min and the reaction was terminated by adding 4 μl 2.5 M HCl. The samples were then diluted to 2 ml with 0.1 M Tris pH8.2, and measured for their fluorescent intensity by a PTI fluorometer (Photo Technology International, South Brunswick, N.J.). The excitation wavelength was 380 nm, and the emission wavelength 440 mn.
For another experiment, the system named is Peripheral blood T cells. As to the kind of experiment: Mitogen-stimulated T cell proliferation (3H-thymidine uptake). Type of experiment: cell-based, human. As to conditions: for inhibition of subsequent PHA-stimulated proliferation after preincubation and wash: 10 μM LAC; for inhibition of T cell proliferation (3H-thymidine uptake): LAC added at 0 h. How it is done:
Lymphocytes were stimulated with various mitogens as indicated, and LAC at different concentrations was added at the beginning of the cultures. The cells were pulsed with 3H-thymidine between 48 h and 64 h. Samples were in triplicates. All the experiments were performed at least three times and similar results were obtained. Representative results are shown.
A: Peripheral blood T cells stimulated with PHA (2 μg/ml).
B: Peripheral blood T cells stimulated with OKT3 (50 ng/ml).
C: Peripheral blood T cells stimulated with anti-CD28 (50 ng/ml) plus ionomycin (1 μg/ml).
A. The rapid effect of LAC Peripheral blood T cells were pretreated with 10 μM LAC in culture medium or in culture medium alone for 3 h or 16 h. The cells were then washed and recultured in the presence of 2 μg/ml PHA for 64 h. The cells were pulsed with ^3H-thymidine for 16 h before they were harvested at 64 h. Samples were in triplicates.
C and D. LAC blocks the S phase entry of the mitogen-stimulated peripheral blood T cells Peripheral blood T cells were stimulated with PHA (2 μ/ml) in the absence or presence of LAC (10 μM, added at 0 h, 16 h, 24 h, or 40 h, as indicated in the bottom of the panels). For the flow cytometry analysis of the cell cycle progress, the cells were harvested at 0 h, 1 6 h, 40 h and 64 h as indicated on the top of the panels (FIG. 6C). For ^3H-thymidine uptake, the triplicated cell samples were pulsed at 48 h and harvested at 64 h (FIG. 6D).
The role of proteasome in T cell activation and proliferation was first examined in PBMC, using the proteasome-specific inhibitor LAC. The PBMC were activated with various stimulants. LAC was added to the cells in the beginning of the culture (0 h) along with the stimulants. ^3H-thymidine uptake between 48 h and 64 h of 64 h cultures was used as a parameter for cell proliferation. […] Rather, it likely affects certain downstream events governing a more general process(es) in lymphocyte activation and proliferation.
We next investigated how fast and how long LAC could exert its effects on the lymphocytes, since this information is necessary to assess the requirement of the proteasome activity for events related to cell activation and proliferation. The cells were then washed and recultured in the presence of PHA. The thymidine uptake was measured 3 days later.
Peripheral blood mononuclear cells (PBMC) and tonsillar T cells were prepared as described before (Luo et al., 1992, Transplantation 53:1071; Luo et al., 1993, Clin. & Exp. Immunol. 94:371). The cells were cultured in RPMI 1640 supplemented with 10% FCS, L-glutamine and antibiotics. ^3H-thymidine uptake was carried out as described previously (Luo et al., 1992, supra; Luo et al., 1993, supra).

For the molecule `CC(=O)N[C@@H](CSC(=O)[C@]1([C@@H](O)C(C)C)NC(=O)[C@H](C)[C@@H]1O)C(=O)O` [LAC, lactacystin], the “cell cycle progression from the G1/S boundary to the G2/M phase” value in the experiment with Jurkat cells (HU-synchronized, LAC 6 μM added immediately after release) is “slowed but did not block”. Further, the “progress from G2/M through M phase to G1 phase” value in the experiment on Jurkat cells (nocodazole-synchronized, LAC 6 μM 3 h before and after release) is on record as “at a similar pace as the control cells”. Also, the “inhibition of total chymotrypsin-like activity in the lysate” value turned out to be 86.7% in experiment [1] (70 h lysate from PHA plus RAPA-treated PBMC), 76.7% in experiment [1] (70 h lysate from PHA-treated PBMC) and 73.4% in experiment [1] (70 h lysate from medium-treated PBMC). The “inhibition of subsequent PHA-stimulated proliferation after preincubation and wash” value in the experiment with Peripheral blood T cells (3 h preincubation) was “significant inhibition”; in the experiment on Peripheral blood T cells (16 h preincubation, compared with 3 h), “more effective”. For the same molecule, the “inhibition of T cell proliferation (3H-thymidine uptake)” value with Peripheral blood T cells (Ca++ ionophore plus cross-linking of CD28) was “strongly and dose-dependently inhibited”; in the experiment on Peripheral blood T cells (crosslinking TCR with anti-CD3), “strongly and dose-dependently inhibited”; in the experiment with Peripheral blood T cells (induced by PHA, uptake 48-64 h), “strongly and dose-dependently inhibited”. Moreover, the “extent of inhibition of T cell proliferation” value in the experiment on Peripheral blood T cells (LAC at 5 μM, PHA, anti-CD3, anti-CD28 plus ionomycin systems) is “near-to-maximal inhibition”. The “inhibition of 3H-thymidine uptake” value in the experiment with Peripheral blood T cells (PHA, LAC 10 μM added as late as 40 h, pulsed 48 h, harvested 64 h) is listed as “strongly inhibitory”.
